Assay results reported in patent US20230086718A1, “METHOD FOR PREDICTING THE SURVIVAL TIME OF A PATIENT SUFFERING FROM A CANCER” (INSERM (INSTITUT NATIONAL DE LA SANTÉ ET DE LA RECHERCHE …, priority 2020, published 2023).

Experiments:
Type in all cases: cell-based, human
Vδ1 T cells [1] = assay: Adenosine measurement by MALDI TOF spectrometry in supernatants of amplified Vδ1 T cells
Experimental: Amplified Vδ1 T cells (2.106 cells/mL) were washed in cold PBS and resuspended in PBS supplemented with 50 mM AMP (Sigma) at 4° C. for 30 min. After centrifugation, adenosine levels in supernatants were analyzed by MALDI-TOF mass spectrometry, as previously described by Bastid et al..

Vδ1 T cells [2] = assay: Flow cytometry of CD39, CD73 and PD-L1 expression in expanded Vδ1 T cells
Source text: Peripheral Blood Mononuclear Cells (PBMCs) were obtained by density centrifugation on Ficoll-Paque (Eurobio, Les Ulis, France) of blood samples from healthy donors and breast cancer patients. Healthy donor samples were provided by the Etablissement Français du Sang (Convention EFS-OCPM no 21PLER2018-0069) and the blood of patients was provided by the ICM (BCB-EC-1-FR-ICM-ENR-269-004-CRB). […] Vδ1 T cells were isolated from PBMCs by a positive immunoselection using the anti-human Vδ1 antibody (Beckman Coulter) and anti-IgG1 magnetic beads (Miltenyi Biotec). Briefly, 300.106 cells were incubated with 10 μg of anti-human Vδ1 antibody in 5 ml of PBS supplemented with 2% SVF and EDTA (2 mM) for 1 hour at 4° C., then washed and incubated with 200 μl of anti-IgG1 magnetic beads for 1 hour at 4° C., then washed and collected on column according to the manufacturer's instructions (Miltenyi Biotec). Reproducible high purity of Vδ1 T cells (>90%) was obtained with this protocol. Purified Vδ1 T cells (2.106 cells/ml) were stimulated with 2 μg/mL of PHA in the presence of syngeneic macrophages isolated using their adherence properties. Briefly, PBMC (2.106/ml) were incubated in RPMI 10% FCS for 1 hour at 37° C. in 96 well-plates to allow to monocytes to adhere and differentiate in macrophages. Non-adherent cells were removed by 2 washes with RPMI medium. Purified Vδ1 T cells were added to macrophages, activated by PHA and expanded in the complete medium containing RPMI 1640/Glutamax medium supplemented with 5% human AB serum and 5% fetal calf serum (FCS) in the presence of rhIL-2 (control) or rhIL-2+rhIL-21 (experimental condition) at 37° C. in humidified atmosphere with 5% CO2. Every 2 days, fresh medium is added and after 1 week Vδ1 T cells were separated from adherent macrophages and amplified in the complete medium with cytokines for 2 more weeks before phenotyping and analysis.
Cells were first incubated at 4° C. for 30 min with Fc-block solution to minimize non-specific binding of antibodies to Fc receptors, then incubated with a dye cell viability and the panel of antibodies in the staining buffer (PBS-2% FCS) at 4° C. for 30 min, cells were then washed and fixed in 1% paraformaldehyde. Data were acquired with a Cytoflex cytometer (Beckman-Coulter) and analyzed with the FlowJo software.
Peripheral Blood Mononuclear Cells (PBMCs) were obtained by density centrifugation on Ficoll-Paque (Eurobio, Les Ulis, France) of blood samples from healthy donors and breast cancer patients. Healthy donor samples were provided by the Etablissement Français du Sang and the blood of patients was provided by the Institut regional du Cancer de Montpellier (ICM). […] Vδ1 T cells were isolated from PBMCs by a positive immunoselection using the anti-human Vδ1 antibody (Beckman Coulter) and anti-IgG1 magnetic beads (Miltenyi Biotec). Briefly, 300.106 cells were incubated with 10 μg of anti-human Vδ1 antibody in 5 ml of PBS supplemented with 2% SVF and EDTA (2 mM) for 1 hour at 4° C., then washed and incubated with 200 μl of anti-IgG1 magnetic beads for 1 hour at 4° C., then washed and collected on column according to the manufacturer's instructions (Miltenyi Biotec). Reproducible high purity of Vδ1 T cells (>90%) was obtained with this protocol. Purified Vδ1 T cells (2.106 cells/ml) were stimulated with 2 μg/mL of PHA in the presence of syngeneic macrophages isolated using their adherence properties. […]

Vδ1 T cells [3] = assay: ELISA of IL-10, IL-8 and TGF-β in supernatants of expanded Vδ1 T cells
Source text: Phytohemagglutinin (PHA) was purchased from Thermofisher Scientific. The anti-human CD3 (UCHT1), and the anti-human TCR γδ and TCR Vδ1 antibodies were purchased from Beckman Coulter (Brea, Calif., USA). Anti-human CD3, CD73, CD39 and their isotypically matched control mouse antibodies were from BD Biosciences (San Jose, Calif., USA). The anti-human TCR γδ antibody used for IHC was from Santa Cruz Biotechnology (USA). Recombinant human IL-2 (rhIL-2) was from Novartis Pharma (Rueil-Malmaison, France), and recombinant IL-21 (rhIL-21) was from Miltenyi Biotec (Paris, France). ELISA kits for detecting human IL-10 and IL-8 were from BD Biosciences (San Jose, Calif., USA). ELISA kit for the detection of human TGFβ was from RD system.
Expanded Vδ1 T cells (2.106 cells/mL) were incubated in fresh medium without cytokines in wells coated or not with the anti-CD3 antibody (UCHT1) for 6 h, and then supernatants were collected. IL-8 and IL-10 protein levels were assessed using the relevant BD Biosciences Opteia Kits. The mean values of duplicate samples from the same experiment are shown for each data point with their standard error of the mean (SEM).

Nc1ncnc2c1ncn2[C@@H]1O[C@H](COP(=O)([O-])CP(=O)(O)O)[C@@H](O)[C@H]1O.[Na+] [APCP, adenosine 5′-(α,β-methylene)-diphosphate sodium salt, reference compound]
adenosine production by control and IL-21-amplified Vδ1 T cells (Vδ1 T cells [1]; in the presence of the CD73 inhibitor): strongly impaired

rhIL-21: recombinant IL-21 (rhIL-21) from Miltenyi Biotec, cytokine added with rhIL-2 to expand Vδ1 T cells
percentage of CD39-positive cells (Vδ1 T cells [2]; Vδ1 T cells from healthy donors expanded with rhIL-2+rhIL-21 vs rhIL-2 only (control)): did not modify | fraction of Vδ1 T cells expressing PD-L1 (Vδ1 T cells [2]; cells exposed to rhIL-21, about 50% in the control condition): 65% | fraction of CD39/CD73-positive Vδ1 T cells (Vδ1 T cells [2]; expanded with rhIL-2+rhIL-21, vs 18% in control cells): 40% | fraction of CD73-positive Vδ1 T cells (Vδ1 T cells [2]; expanded with rhIL-2+rhIL-21, vs 20% in the control condition (rhIL-2 only)): 50% | percentage of PD-L1+ in CD73-positive Vδ1 T cells (Vδ1 T cells [2]; exposure to rhIL-21 vs control, around 60%): did not modify | adenosine generated in the presence of AMP (Vδ1 T cells [1]; IL-21-amplified Vδ1 T cells, control cells (only rhIL-2) ~0.4 μM): ~1.4 µM | IL-10 production after TCR/CD3 activation (Vδ1 T cells [3]; IL-21-amplified CD73+ Vδ1 T cells, not in the CD73− cells): strongly increased | IL-10 in supernatants, absence of activation (Vδ1 T cells [3]; IL-21-amplified Vδ1 T cells, CD73+ or CD73−, not detected in control cells): basal level | IL-8 production (Vδ1 T cells [3]; activated IL-21-amplified CD73+ Vδ1 T cells only): highly present | TGF-β secretion (Vδ1 T cells [3]; any of the tested conditions): did not detect
